In general, IC50 refers to the concentration that inhibits the measured activity by half.

Consider three molecules from article PMC6545112 (Journal of medicinal chemistry, 2018).

Data set [1] has as its system MDM2, p53, p21 and PARP cleavage in RS4;11 xenograft tumors. The settings on record: single dose, mice; cited from earlier work.
A further data set has as its system RS4;11 xenograft tumors. Put plainly: antitumor activity in the RS4. It counts as in vivo, mice.
For the next data set, the system named is KG-1. The data set can be described thus: cell growth inhibition assay, KG-1. It counts as cell-based, human. The settings on record: read-out: IC50 in cell growth inhibition assay; KG-1, AML, p53 MUT.
Data set [2] deals with human acute leukemia cell lines with wild-type p53. Put plainly: cell growth inhibition, panel of acute leukemia cell lines with wild-type p53. The format is cell-based.
A further data set concerns RS4;11 cell line. The data set can be described thus: cell growth inhibition, WST-8 assay, RS4. The format is cell-based, human. Background: Tetrazolium dyes change colour on reduction, which living cells bring about.
Another data set has as its system ML-2. Put plainly: cell growth inhibition assay, ML-2. The format is cell-based, human. To be noted: read-out: IC50 (nM) in cell growth inhibition assay; ML-2, AML, p53 WT.
A further data set concerns SIG-M5. Put plainly: cell growth inhibition assay, SIG-M5. The format is cell-based, human. The settings on record: read-out: IC50 (nM) in cell growth inhibition assay; SIG-M5, AML, p53 WT.
The test system of data set [3] is leukemia cell lines with mutated p53. The data set can be described thus: cell growth inhibition, leukemia cell lines with mutated p53. It counts as cell-based, human. To be noted: read-out: IC50 in leukemia cell lines with mutated p53.
For data set [4], the system named is p53 target genes (MDM2, p21, PUMA) and TP53 in RS4;11 cells. Put plainly: qRT-PCR analysis of mRNA levels of p53 target genes and TP53 in RS4. The format is cell-based, human. The settings on record: RS4;11, 6 h.
For the next data set, the system named is MOLM-14. Put plainly: cell growth inhibition assay, MOLM-14. The format is cell-based, human. The settings on record: read-out: IC50 (nM) in cell growth inhibition assay; MOLM-14, AML, p53 WT.
A further data set relates to MOLM-13. The data set can be described thus: cell growth inhibition assay, MOLM-13. The format is cell-based, human. To be noted: read-out: IC50 (nM) in cell growth inhibition assay; MOLM-13, AML, p53 WT.
In another data set the test system is RS4;11 cells. Put plainly: flow cytometric analysis of apoptosis, Annexin V/PI double staining. It counts as cell-based, human. The settings on record: RS4;11, 24 h treatment. For orientation: In flow cytometry, cells or beads pass a laser one at a time.
A further data set deals with OCL-AML-5. The data set can be described thus: cell growth inhibition assay, OCL-AML-5. The format is cell-based, human. To be noted: read-out: IC50 (nM) in cell growth inhibition assay; OCL-AML-5, AML, p53 WT.
The subject of the next data set is Mono-Mac-6. The data set can be described thus: cell growth inhibition assay, Mono-Mac-6. The format is cell-based, human. The settings on record: read-out: IC50 in cell growth inhibition assay; Mono-Mac-6, AML, p53 MUT.
The test system of data set [5] is MDM2, p53, p21 and PARP cleavage in RS4;11 xenograft tumors. Put plainly: pharmacodynamic analysis in RS4. It counts as in vivo, mice. To be noted: single dose 25 mg/kg, IV.
Data set [6] deals with MDM2 and p53 proteins in RS4;11 cells (Homo sapiens, UniProt Q00987). Put plainly: western blotting analysis of MDM2 and p53 proteins in RS4. It counts as cell-based. The settings on record: RS4;11 cells, 2 h treatment. (Immunoblotting shows a protein as a band on a membrane.)
Chain of MDM2 and p53 proteins in RS4;11 cells (Q00987 whole entry): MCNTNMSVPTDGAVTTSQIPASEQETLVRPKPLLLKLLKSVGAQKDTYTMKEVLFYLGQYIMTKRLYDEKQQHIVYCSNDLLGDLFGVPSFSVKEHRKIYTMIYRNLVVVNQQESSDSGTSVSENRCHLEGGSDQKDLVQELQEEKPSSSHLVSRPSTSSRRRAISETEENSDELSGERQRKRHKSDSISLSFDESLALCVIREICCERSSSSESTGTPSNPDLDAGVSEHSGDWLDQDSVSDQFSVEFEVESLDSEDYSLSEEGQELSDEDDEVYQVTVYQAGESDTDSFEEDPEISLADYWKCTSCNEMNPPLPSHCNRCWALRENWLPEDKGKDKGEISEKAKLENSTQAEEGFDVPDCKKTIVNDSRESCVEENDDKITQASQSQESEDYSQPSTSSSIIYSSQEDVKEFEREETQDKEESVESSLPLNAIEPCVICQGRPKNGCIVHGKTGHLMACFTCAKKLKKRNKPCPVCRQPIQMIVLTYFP
For data set [7] the following is noted: first efficacy experiment.
The next data set has as its system MV4;11 AML cell line. Put plainly: cell growth inhibition, MV4. It counts as cell-based, human.

“Also recorded” adds a separate entry of the source. Read-outs that look alike come from different tables or passages of the source.

With `CC(C)(C)C[C@@H]1N[C@@H](C(=O)N[C@H]2CC[C@H](O)CC2)[C@H](c2cccc(Cl)c2F)[C@]12C(=O)Nc1cc(Cl)ccc12` [MI-77301], the “duration of p53 protein upregulation in tumor tissue” value in [1] is listed as “only a few hours”.

With “(3’R,4’S,5’R)-6”-Chloro-4’-(3-Chloro-2-fluorophenyl)-N-(4-((5-(2-(2,6-dioxopiperidin-3-yl)-1,3-dioxoisoindolin-4-yl)pent-4-yn-1-yl)carbamoyl)phenyl)-2”-oxodispiro[cyclohexane-1,2’-pyrrolidine-3’,3”-indoline]-5’-carboxamide [Compound 14]”, the antitumor activity entry was “complete tumor regression” with RS4;11 xenograft tumors (25 mg/kg, daily, 5 days a week for 2 weeks); “complete tumor regression” in the data set with RS4;11 xenograft tumors (50 mg/kg, every other day for three weeks); “complete tumor growth inhibition” in the data set on RS4;11 xenograft tumors (50 mg/kg, weekly dosing). Also, the half-inhibitory concentration (IC50) was above 10000 nM with KG-1; 1.5 ± 0.5 nM with RS4;11 cell line (read-out: IC50 (nM) in inhibition of cell growth in the RS4;11 cell line, 4 days, WST-8 assay); 4.4 ± 2 nM in the data set on ML-2; 19.8 ± 11 nM with SIG-M5; above 10000 nM in [3]; 10.5 ± 3 nM with MOLM-14. In addition, the IC50 in the data set with MOLM-13 is 7.3 ± 3 nM; with OCL-AML-5 it was 33.1 ± 18 nM; in the data set on Mono-Mac-6 it was above 10000 nM. Further, the “times more potent than MI-1061 in cell growth inhibition” value in data set [2] is recorded as above 10 times. In addition, in the data set with RS4;11 cell line (RS4;11), the “times more potent than MD-222 in inhibition of cell growth” value is 2 times. Further, in data set [4], the “effect on TP53 mRNA” value is given as “have no effect on TP53”. In addition, in data set [4], the “times more potent than MI-1061 in transcriptional upregulation of p53 target genes” value is above 10 times. The “times more potent than MI-1061 in inducing apoptosis” value in the data set with RS4;11 cells is on record as above 10 times. Further, in [5], the “PARP cleavage in tumor tissue” value is “evident at the 24 h time point”. Also, the “persistence of MDM2 protein depletion in tumor tissue” value in [5] (depleted at 3 h) is given as above 24 h. For the same molecule, the “duration of p53 and p21 upregulation in tumor tissue” value in data set [5] (strong at 3 h) is recorded as above 24 h.

For `O=C(O)c1ccc(NC(=O)[C@@H]2NC3(CCCCC3)[C@@]3(C(=O)Nc4cc(Cl)ccc43)[C@H]2c2cccc(Cl)c2F)cc1` [MI-1061, reference compound], the antitumor activity entry in the data set with RS4;11 xenograft tumors (100 mg/kg, oral, daily dosing (5 days a week)) is recorded as “effectively retards tumor growth over the control”. Moreover, the “effect of pretreatment with lenalidomide on cell growth inhibitory activity” value in the data set with RS4;11 cell line (RS4;11, 4 days, WST-8) is on record as “no significant effect”; in the data set with MV4;11 AML cell line it was “has no effect on the activity”. In addition, the IC50 in data set [3] (Homo sapiens) is above 10000 nM. Moreover, the “transcriptional upregulation of p53 target genes (MDM2, p21, PUMA)” value in data set [4] was “effectively induces marked transcriptional upregulation of p53 target genes”. Further, in [6], the “effect on MDM2 and p53 protein levels (western blotting)” value was “inducing accumulation of both MDM2 and p53; also recorded: induces accumulation of both MDM2 and p53 proteins”. Further, in data set [7], the “weight loss or other signs of toxicity” value was “no significant weight loss or other signs of toxicity”.
